Reference: article PMC4826872, “Underlying Resistance Mechanisms in the Cynosurus echinatus Biotype to Acetyl CoA Carboxylase-Inhibiting Herbicides” (Frontiers in Plant Science, 2016)
Where two headings read alike, the source gives them in different places.

Target: T1, ACCase (chloroplastic acetyl coenzyme A carboxylase)
T1 construct: plastid and cytosolic forms not separated; S biotype has Arg1789, Met2065, Gly2067, Val2077
Assay: NaH14CO3 incorporation into acid-stable product (malonyl-CoA)
Format: biochemical, Cynosurus echinatus
Conditions: 5 mM acetyl-CoA, 1.5 mM ATP, 5 mM MgCl2, 15 mM bicarbonate, pH 8.3, 34°C, read-out: I50
Description: NaH14CO3 incorporation into acid-stable product (malonyl-CoA) on ACCase (chloroplastic acetyl coenzyme A carboxylase)

`CCc1cc(C)cc(CC)c1-c1c(OC(=O)C(C)(C)C)n2n(c1=O)CCOCC2` [Pinoxaden] gave an IC50 (R biotype, stated gain) of 9.1 µM and an IC50 (S biotype) of 0.39 µM.
`C[C@@H](Oc1ccc(Oc2ccc(C#N)cc2F)cc1)C(=O)O` [Cihalofop] showed an IC50 (R biotype, stated gain) of 70.8 µM and an IC50 (S biotype) of 10.2 µM.
In the case of `CC(Oc1ccc(Oc2ccc(Cl)cc2Cl)cc1)C(=O)O` (stereo not drawn) [Diclofop], the IC50 (R biotype, stated gain) is reported as 63.5 µM and the IC50 (S biotype) is reported as 4.53 µM.
With `CC(Oc1ccc(Oc2nc3ccc(Cl)cc3o2)cc1)C(=O)O` (racemic) [Fenoxaprop] the IC50 (R biotype, stated gain) was 24.2 µM and the IC50 (S biotype) was 1.58 µM.
Work on `CCCC(=NOCC)C1=C(O)CC(C2CCCSC2)CC1=O` (stereo not drawn) [Cycloxidim] yielded an IC50 (R biotype, stated gain) of 7.89 µM and an IC50 (S biotype) of 2.5 µM.
Work on `CCCC(=NOCC)C1=C(O)CC(CC(C)SCC)CC1=O` (stereo not drawn) [Setoxidim] yielded an IC50 (R biotype, stated gain) of 3500 µM and an IC50 (S biotype) of 800 µM.
